PubChem BioAssay AID1259411 (Chemical Carcinogenesis Research Information System (CCRIS), 2018)
The source made the active and inactive calls. No rule for the calls is given here.

System: rodent carcinogenicity bioassays, tumor incidence
Assay: CCRIS carcinogenicity studies
Outline: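 NCI-built, expert-reviewed records of carcinogenicity and related test outcomes (mutagenicity, tumor promotion/inhibition) compiled from published and report sources, historical span 1985-2011, not updated.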

`CC(=O)OC/C=C(\C)CCC=C(C)C` was tested, and the carcinogen call (Species: MOUSE, Strain/Sex: B6C3F1/MALE, Route: GAVAGE, Dose: 0, 500 MG/KG OF FOOD GRADE (29% CITRONELLYL ACETATE) IN CORN OIL 5D/WK FOR 102 WK (STUDY DURATION: 104 WK)) was “inactive; negative”, the carcinogen call (Species: RAT, Strain/Sex: F344/FEMALE, Route: GAVAGE, Dose: 0, 1000, 2000 MG/KG OF FOOD GRADE (29% CITRONELLYL ACETATE) IN CORN OIL 5D/WK FOR 103 WK (STUDY DURATION: 104 WK), Dose: 0, 1000, 2000 MG/KG OF FOOD GRADE (29% CITRONELLYL ACETATE) IN CORN OIL 5D/WK FOR 103 WK (STUDY DURATION: 104 WK)) was “inactive; negative” and the carcinogen call (Species: RAT, Strain/Sex: F344/MALE, Route: GAVAGE, Dose: 0, 1000 MG/KG OF FOOD GRADE (29% CITRONELLYL ACETATE) IN CORN OIL 5D/WK FOR 103 WK (STUDY DURATION: 104 WK)) was “inactive; negative”.

`CC(C)NCCCC1(C(N)=O)c2ccccc2-c2ccccc21` was tested, and the carcinogen call (Species: MOUSE, Strain/Sex: B6C3F1/FEMALE, Route: ORAL, Dose: 0, 0.02, 0.04, 0.08% IN DIET FOR APPROXIMATE DAILY DOSES OF 0, 27, 53, 113 MG/KG (STUDY DURATION: 2 YR), Dose: 0, 0.02, 0.04, 0.08% IN DIET FOR APPROXIMATE DAILY DOSES OF 0, 27, 53, 113 MG/KG (STUDY DURATION: 2 YR)) was “inactive; negative”, the carcinogen call (Species: MOUSE, Strain/Sex: B6C3F1/MALE, Route: ORAL, Dose: 0, 0.02, 0.04, 0.08% IN DIET FOR APPROXIMATE DAILY DOSES OF 0, 27, 53, 113 MG/KG (STUDY DURATION: 2 YR), Dose: 0, 0.02, 0.04, 0.08% IN DIET FOR APPROXIMATE DAILY DOSES OF 0, 27, 53, 113 MG/KG (STUDY DURATION: 2 YR)) was “inactive; negative” and the carcinogen call (Species: RAT, Strain/Sex: F344/FEMALE, Route: ORAL, Dose: 0, 0.02, 0.04, 0.08% IN DIET FOR APPROXIMATE DAILY DOSES OF 0, 9, 18, 37 MG/KG (STUDY DURATION: 2 YR), Dose: 0, 0.02, 0.04, 0.08% IN DIET FOR APPROXIMATE DAILY DOSES OF 0, 9, 18, 37 MG/KG (STUDY DURATION: 2 YR)) was “inactive; negative”. The carcinogen call (Species: RAT, Strain/Sex: F344/MALE, Route: ORAL, Dose: 0, 0.02, 0.04, 0.08% IN DIET FOR APPROXIMATE DAILY DOSES OF 0, 9, 18, 37 MG/KG (STUDY DURATION: 2 YR), Dose: 0, 0.02, 0.04, 0.08% IN DIET FOR APPROXIMATE DAILY DOSES OF 0, 9, 18, 37 MG/KG (STUDY DURATION: 2 YR)) was “inactive; negative”.

`O=C1O[C@H]([C@@H](O)CO)C(O)=C1O` was tested, and the carcinogen call (Species: MOUSE, Strain/Sex: B6C3F1/FEMALE, Route: ORAL, Dose: 0, 25000, 50000 PPM IN DIET FOR 103 WK, Dose: 0, 25000, 50000 PPM IN DIET FOR 103 WK) was “inactive; negative”, the carcinogen call (Species: MOUSE, Strain/Sex: B6C3F1/MALE, Route: ORAL, Dose: 0, 25000, 50000 PPM IN DIET FOR 103 WK, Dose: 0, 25000, 50000 PPM IN DIET FOR 103 WK) was “inactive; negative” and the carcinogen call (Species: RAT, Strain/Sex: F344/FEMALE, Route: ORAL, Dose: 0, 25000, 50000 PPM IN DIET FOR 103 WK, Dose: 0, 25000, 50000 PPM IN DIET FOR 103 WK) was “inactive; negative”. The carcinogen call (Species: RAT, Strain/Sex: F344/MALE, Route: ORAL, Dose: 0, 1, 5, 7% IN DIET OF MALE RATS, PARENTAL GENERATION ALSO FED SODIUM ASCORBATE FOR 4 WK BEFORE MATING THEN CONTINUING I, Dose: 0, 1, 5, 7% IN DIET OF MALE RATS, PARENTAL GENERATION ALSO FED SODIUM ASCORBATE FOR 4 WK BEFORE MATING THEN CONTINUING I) was “inactive; negative”, the carcinogen call (Species: RAT, Strain/Sex: F344/MALE, Route: ORAL, Dose: 0, 25000, 50000 PPM IN DIET FOR 103 WK, Dose: 0, 25000, 50000 PPM IN DIET FOR 103 WK) was “inactive; negative” and the carcinogen call (Species: Rat, Strain/Sex: F344/Male (9-15/group), Route: Oral, Dose: 0, 1%, 1% with 0.2% sodium nitrite in diet for 32 wk, study duration 32 wk in surgically altered rats to produce chronic, Dose: 0, 1%, 1% with 0.2% sodium nitrite in diet for 32 wk, study duration 32 wk in surgically altered rats to produce chronic, Tumor Site: Type of Lesion: Esophagus examined) was “inactive; negative (significant increase in hyperplasia observed in combined chemical grou”. For the same molecule, the carcinogen call (Species: Rat, Strain/Sex: Non-tg/Male, Route: Oral, Dose: 5% sodium ascorbate in diet, continuous, for 57 wk until sacrifice, Tumor Site: Type of Lesion: Total tumor-bearing animals (20.0% in experimental animals vs 25.0% in controls), no bladder tumors) was “inactive; negative. parallel experiment in hras128 rat line was conducted to determine bla”.

`NNCCc1ccccc1` was tested, and the carcinogen call (Species: MOUSE, Strain/Sex: SWISS/MALE, Route: ORAL, Dose: 0, 0.15% IN WATER, Tumor Site: Type of Lesion: BLOOD VESSELS: ANGIOMA, ANGIOSARCOMA, LUNG: ADENOMA, ADENOCARCINOMA) was “active; positive” and the carcinogen call (Species: RAT, Strain/Sex: SPRAGUE-DAWLEY/MALE, Route: ORAL, Dose: 0, 0.02% IN DIET FOR 68-87 WK (STUDY DURATION: 87 WK)) was “inactive; negative”.

With `O=NO` the carcinogen call (Species: MOUSE, Strain/Sex: B6C3F1/FEMALE, Route: ORAL, Dose: 0, 30.7, 310 MG/D IN DRINKING WATER FOR LIFE ADMINISTERED TO MICE OF MOTHERS EXPOSED TO SAME DOSES THROUGH PREGNANCY AND, Dose: 0, 30.7, 310 MG/D IN DRINKING WATER FOR LIFE ADMINISTERED TO MICE OF MOTHERS EXPOSED TO SAME DOSES THROUGH PREGNANCY AND) was “inactive; negative”, the carcinogen call (Species: MOUSE, Strain/Sex: B6C3F1/FEMALE, Route: ORAL, Dose: 0, 750, 1500, 3000 PPM IN DRINKING WATER FOR 104-105 WK (STUDY DURATION: 104-105 WK), Dose: 0, 750, 1500, 3000 PPM IN DRINKING WATER FOR 104-105 WK (STUDY DURATION: 104-105 WK), Tumor Site: Type of Lesion: FORESTOMACH: SQUAMOUS CELL PAPILLOMA OR CARCINOMA) was “equivocal” and the carcinogen call (Species: MOUSE, Strain/Sex: B6C3F1/MALE, Route: ORAL, Dose: 0, 30.7, 310 MG/D IN DRINKING WATER FOR LIFE ADMINISTERED TO MICE OF MOTHERS EXPOSED TO SAME DOSES THROUGH PREGNANCY AND, Dose: 0, 30.7, 310 MG/D IN DRINKING WATER FOR LIFE ADMINISTERED TO MICE OF MOTHERS EXPOSED TO SAME DOSES THROUGH PREGNANCY AND) was “inactive; negative”. For the same molecule, the carcinogen call (Species: MOUSE, Strain/Sex: B6C3F1/MALE, Route: ORAL, Dose: 0, 750, 1,500, 3,000 PPM IN DRINKING WATER FOR 104-105 WK (STUDY DURATION: 104-105 WK), Dose: 0, 750, 1,500, 3,000 PPM IN DRINKING WATER FOR 104-105 WK (STUDY DURATION: 104-105 WK)) was “inactive; negative”, the carcinogen call (Species: MOUSE, Strain/Sex: C57BL/FEMALE, Route: ORAL, Dose: 0, 30.7, 310 MG/D IN DRINKING WATER BEGINNING AT 7-8 WK OF AGE AND CONTINUING FOR STUDY DURATION (STUDY DURATION: LIFE S, Dose: 0, 30.7, 310 MG/D IN DRINKING WATER BEGINNING AT 7-8 WK OF AGE AND CONTINUING FOR STUDY DURATION (STUDY DURATION: LIFE S) was “inactive; negative” and the carcinogen call (Species: MOUSE, Strain/Sex: VM/FEMALE, Route: ORAL, Dose: 0, 0.2% IN DRINKING WATER BEGINNING AT WEANING AND CONTINUING FOR DURATION STUDY (STUDY DURATION: LIFETIME)) was “inactive; negative”. For the same molecule, the carcinogen call (Species: MOUSE, Strain/Sex: VM/FEMALE, Route: ORAL, Dose: 0, 0.2% IN DRINKING WATER BEGINNING IN UTERO AND CONTINUING FOR DURATION OF STUDY (STUDY DURATION: LIFETIME)) was “inactive; negative”, the carcinogen call (Species: MOUSE, Strain/Sex: VM/MALE, Route: ORAL, Dose: 0, 0.2% IN DRINKING WATER BEGINNING AT WEANING AND CONTINUING FOR DURATION OF STUDY (STUDY DURATION: LIFETIME)) was “inactive; negative” and the carcinogen call (Species: MOUSE, Strain/Sex: VM/MALE, Route: ORAL, Dose: 0, 0.2% IN DRINKING WATER BEGINNING IN UTERO AND CONTINUING FOR DURATION OF STUDY (STUDY DURATION: LIFETIME)) was “inactive; negative”. For the same molecule, the carcinogen call (Species: RAT, Strain/Sex: F344/FEMALE, Route: ORAL, Dose: 0, 750, 1,500, 3,000 PPM IN DRINKING WATER FOR 105 WK (STUDY DURATION: 105 WK), Dose: 0, 750, 1,500, 3,000 PPM IN DRINKING WATER FOR 105 WK (STUDY DURATION: 105 WK)) was “inactive; negative”, the carcinogen call (Species: RAT, Strain/Sex: F344/MALE,FEMALE, Route: ORAL, Dose: 0.125, 0.25% IN DRINKING WATER FOR 2 YR) was “inactive; negative” and the carcinogen call (Species: RAT, Strain/Sex: F344/MALE, Route: ORAL, Dose: 0, 0.2, 0.5% IN DIET FOR 115 WK (STUDY DURATION: 115 WK), Dose: 0, 0.2, 0.5% IN DIET FOR 115 WK (STUDY DURATION: 115 WK)) was “inactive; negative”. The carcinogen call (Species: RAT, Strain/Sex: F344/MALE, Route: ORAL, Dose: 0, 750, 1,500, 3,000 PPM IN DRINKING WATER FOR 105 WK (STUDY DURATION: 105 WK), Dose: 0, 750, 1,500, 3,000 PPM IN DRINKING WATER FOR 105 WK (STUDY DURATION: 105 WK)) was “inactive; negative”.
